Like-named read-outs stand apart in the source and are kept apart here. Starred links: 1 amine or outer side, 2 acyl side, 3 side chain; linkers in the order of their positions; H or OH if unused. Positions of bridges follow the written chain, without caps; N, C: chain ends. Non-standard residues stand in square brackets, D forms with d. Residues, ends and D or L forms follow the SMILES beside them. *: point of attachment. Phe(3-(CH2)4CO) = O=C([C@H](Cc1cccc(CCCCC(=O)[*:3])c1)N[*:1])[*:2]; Lys(Me2) = CN(C)CCCC[C@H](N)C(=O)O; hhPhe = N[C@@H](CCCc1ccccc1)C(=O)O; NMeF = CN[C@@H](Cc1ccccc1)C(=O)O; NMeI = CC[C@H](C)[C@H](NC)C(=O)O; 3Pal = N[C@@H](Cc1cccnc1)C(=O)O; NMeβAla = CN(CCC(=O)[*:2])[*:1]; NMeL = CN[C@@H](CC(C)C)C(=O)O; NMeV = CN[C@H](C(=O)O)C(C)C; NMeA = CN[C@@H](C)C(=O)O; Piperidide = C1CCN(*)CC1; dNMeA = CN[C@H](C)C(=O)O; β3hA = C[C@H](N)CC(=O)O; Sar = CNCC(=O)O; tBu = CC(C)(C)*
Tests used:
[1] = PAMPA (parallel artificial membrane permeability assay); type: in vitro ADME; details: PAMPA
Method in brief: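 Artificial membrane was 10% (w/v) egg lecithin plus 0.5% (w/v) cholesterol in dodecane on a PVDF filter. A 10 mM DMSO stock was added at 0.5% (v/v) to donor buffer (50 mM MOPSO, pH 6.5, 5.0% glycocholic acid). After 18 h at 37 °C, LC/MS or LC/UV gave donor and acceptor levels for Pe.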

[2] = Metabolic stability in human hepatic microsome; type: in vitro ADME; details: microsomes
[3] = membrane permeation rate (Pe), 50 mM MOPSO buffer pH 6.5 with 5.0% glycocholic acid, 37° C., 18 hours, read-out: iPAMPA Pe
[4] = pH 7.4, human hepatic microsome, NADPH(+), read-out: CL NADPH(+)

SMILES | Papp at 18 hours, 50 µM [1, 3] [×10⁻⁶ cm/s] | microsomal CLint at 1 uM [2, 4] [µL/min/mg] | Papp at 18 hours, 50 µM ([1]; pH 6.5) [×10⁻⁶ cm/s] | microsomal CLint at 1 uM ([2]; human, pH 7.4, CL NADPH(+)) [µL/min/mg]
CC[C@H](C)[C@@H]1NC(=O)[C@H](Cc2ccccc2)NC(=O)[C@H](C)N(C)C(=O)C[C@@H](C(=O)N2CCCCC2)NC(=O)[C@H](CC(C)C)NC(=O)[C@H](Cc2ccccc2)NC(=O)[C@H](Cc2ccccc2)N(C)C(=O)[C@H](CC(C)C)NC(=O)[C@H]([C@@H](C)O)NC(=O)[C@H](CC(C)C)N(C)C1=O [DP-332] ([NMeA]FI[NMeL]TL[NMeF]FLD-Piperidide; lactam N-10) | 14 | 284 |  | 
CC[C@H](C)[C@@H]1NC(=O)[C@H](C)N(C)C(=O)[C@H]([C@@H](C)O)NC(=O)[C@H](C(C)C)N(C)C(=O)[C@H](CC(C)C)NC(=O)[C@H](CC(C)C)N(C)C(=O)[C@@H](C)N(C)C(=O)C[C@@H](C(=O)N2CCCCC2)NC(=O)[C@H](Cc2ccccc2)NC(=O)[C@H](C)NC(=O)[C@H](Cc2ccccc2)N(C)C1=O [DP-242] ([dNMeA][NMeL]L[NMeV]T[NMeA]I[NMeF]AFD-Piperidide; lactam N-11) | 29 | 43 |  | 
CC(C)C[C@H]1C(=O)N(C)[C@@H](CC(C)C)C(=O)N[C@H](C(=O)N(C)[C@@H](Cc2ccccc2)C(=O)N[C@@H](C)C(=O)N2CCCCC2)CC(=O)N[C@H](C(C)C)C(=O)N(C)[C@@H](C)C(=O)N(C)[C@@H](Cc2ccccc2)C(=O)N(C)[C@@H](C)C(=O)N[C@@H](CCCCN(C)C)C(=O)N(C)CC(=O)N[C@@H](C(C)C)C(=O)N1C [DP-631] ([dV][NMeA][NMeF][NMeA][Lys(Me2)][Sar]V[NMeL][NMeL]D[NMeF]A-Piperidide; lactam N-10) | 1.6 | 5 |  | 
CC(C)[C@@H]1NC(=O)[C@H](C)N(C)C(=O)[C@H](C(C)C)N(C)C(=O)CCN(C)C(=O)C[C@@H](C(=O)N(C)[C@@H](Cc2ccccc2)C(=O)N(C)[C@@H](Cc2ccccc2)C(=O)N[C@@H](C)C(=O)N2CCCCC2)NC(=O)[C@H](C)N(C)C(=O)[C@H](C)N(C)C(=O)[C@H]([C@@H](C)O)NC(=O)[C@H](C)N(C)C(=O)[C@H](Cc2ccccc2)N(C)C1=O [DP-450] ([NMeβAla][NMeV][NMeA]V[NMeF][NMeA]T[NMeA][NMeA]D[NMeF][NMeF]A-Piperidide; lactam N-10) | 2.3 | 17 |  | 
CC(C)C[C@H]1C(=O)N(C)[C@@H](C(C)C)C(=O)N(C)[C@@H](C)C(=O)N[C@@H](CCCc2ccccc2)C(=O)N(C)[C@@H](C)C(=O)N[C@H](C(=O)N2CCCCC2)CC(=O)N(C)[C@@H](C)C(=O)N[C@@H]([C@@H](C)O)C(=O)N(C)[C@@H](C)C(=O)N[C@@H](C)C(=O)N(C)[C@@H](Cc2ccccc2)C(=O)N1C [DP-735] ([NMeA]T[NMeA]A[NMeF][NMeL][NMeV][NMeA][hhPhe][NMeA]D-Piperidide; lactam N-11) | 21 | 88 |  | 
CC(C)[C@@H]1NC(=O)[C@H](C)N(C)C(=O)[C@H](Cc2ccccc2)N(C)C(=O)[C@H](C)N(C)C(=O)[C@H]([C@@H](C)O)NC(=O)[C@H](C)N(C)C(=O)[C@H](C)N(C)C(=O)C[C@@H](C(=O)N(C)[C@@H](Cc2ccccc2)C(=O)N(C)[C@@H](Cc2ccccc2)C(=O)N[C@@H](C)C(=O)N2CCCCC2)NC(=O)[C@H](C)N(C)C(=O)[C@H](C)N(C)C1=O [DP-460] ([NMeA][NMeA]T[NMeA][NMeF][NMeA]V[NMeA][NMeA]D[NMeF][NMeF]A-Piperidide; lactam N-10) | 5.1 | 17 |  | 
CC(C)C[C@H]1C(=O)N[C@H](C(=O)N2CCCCC2)CC(=O)N(C)CCC(=O)N[C@@H]([C@@H](C)O)C(=O)N(C)CC(=O)N[C@@H](COC(C)(C)C)C(=O)N(C)[C@@H](Cc2ccccc2)C(=O)N1C [DP-750] ([NMeβAla]T[Sar]S(tBu)[NMeF][NMeL]D-Piperidide; lactam N-7) | 13 | 49 |  | 
CC[C@H](C)[C@H]1C(=O)N[C@@H](COC(C)(C)C)C(=O)N(C)[C@@H](C(C)C)C(=O)N[C@@H](C)CC(=O)N(C)[C@@H](CC(C)C)C(=O)N(C)[C@@H](Cc2ccccc2)C(=O)N[C@@H](CC(C)C)C(=O)N(C)[C@@H](CC(C)C)C(=O)N[C@@H]([C@@H](C)O)C(=O)N(C)CC(=O)N1C [DP-821] (cyclo(L[NMeL]T[Sar][NMeI]S(tBu)[NMeV][β3hA][NMeL][NMeF])) | 62 | 547 |  | 
CC[C@H](C)[C@@H]1NC(=O)[C@H](CC(C)C)N(C)C(=O)[C@H](C)N(C)C(=O)[C@H]([C@@H](C)O)NC(=O)[C@H](Cc2ccccc2)N(C)C(=O)[C@H](C)N(C)C(=O)[C@@H](C)N(C)C(=O)C[C@@H](C(=O)N(C)[C@@H](Cc2ccccc2)C(=O)N(C)[C@@H](Cc2ccccc2)C(=O)N[C@@H](C)C(=O)N2CCCCC2)NC(=O)[C@H](C(C)C)N(C)C(=O)[C@H](CC(C)C)N(C)C1=O [DP-300] ([dNMeA][NMeA][NMeF]T[NMeA][NMeL]I[NMeL][NMeV]D[NMeF][NMeF]A-Piperidide; lactam N-10) | 8.2 | 166 |  | 
CC[C@H](C)[C@@H]1NC(=O)[C@H](CC(C)C)NC(=O)[C@H](CC(C)C)NC(=O)[C@H](C)N(C)C(=O)[C@H](C(C)C)NC(=O)[C@H](C)NC(=O)C[C@@H](C(=O)N2CCCCC2)NC(=O)[C@H](CC(C)C)NC(=O)[C@H]([C@@H](C)O)NC(=O)[C@@H]2CCCN2C(=O)[C@H](CC(C)C)NC(=O)[C@H](Cc2ccccc2)NC1=O [DP-4] (AV[NMeA]LLIFLPTLD-Piperidide; lactam N-12) |  |  | 11 | 42
CC(C)C[C@H]1C(=O)N[C@H](C(=O)N2CCCCC2)Cc2cccc(c2)CCCCC(=O)N(C)[C@@H](Cc2ccccc2)C(=O)NCC(=O)N(C)[C@@H](Cc2ccccc2)C(=O)N(C)[C@@H](CC(C)C)C(=O)N(C)[C@@H](CC(C)C)C(=O)N1C [DP-844] ([NMeF]G[NMeF][NMeL][NMeL][NMeL][Phe(3-(CH2)4CO)]-Piperidide; lactam N-7) |  |  | 11 | 356
CC[C@H](C)[C@H]1C(=O)N[C@@H](C)C(=O)N[C@H](C(=O)N2CCCCC2)CC(=O)N[C@H](C(C)C)C(=O)N[C@@H](Cc2ccccc2)C(=O)N(C)[C@@H](C(C)C)C(=O)N(C)[C@@H](C)C(=O)N[C@@H]([C@@H](C)O)C(=O)N(C)CC(=O)N(C)[C@@H](CC(C)C)C(=O)N1C [DP-254] ([dV]F[NMeV][NMeA]T[Sar][NMeL][NMeI]AD-Piperidide; lactam N-10) | 3.5 | 13 |  | 
CC(C)C[C@@H]1NC(=O)[C@H](Cc2cccnc2)NC(=O)[C@@H]2CCCN2C(=O)[C@H](C)NC(=O)[C@H](CC(C)C)N(C)C(=O)[C@H](Cc2ccccc2)NC(=O)[C@H](C)N(C)C(=O)[C@H](CC(C)C)N(C)C(=O)[C@H](Cc2ccccc2)NC(=O)[C@H](C)N(C)C(=O)C[C@@H](C(=O)N(C)[C@@H](Cc2ccccc2)C(=O)N[C@@H](C)C(=O)N2CCCCC2)NC1=O [DP-599] ([NMeA]F[NMeL][NMeA]F[NMeL]AP[3Pal]LD[NMeF]A-Piperidide; lactam N-11) |  |  | 28 | 84
CC[C@H](C)[C@H]1C(=O)NCC(=O)N(C)[C@@H](Cc2ccccc2)C(=O)N[C@@H]([C@@H](C)O)C(=O)N(C)[C@@H](C)C(=O)N[C@@H](CC(C)C)C(=O)N[C@@H](C)CC(=O)N(C)[C@H](C)C(=O)N(C)[C@@H](C)C(=O)N[C@@H](Cc2ccccc2)C(=O)N(C)[C@@H](CC(C)C)C(=O)N[C@@H](C(C)C)C(=O)N1C [DP-755] (cyclo(F[NMeL]V[NMeI]G[NMeF]T[NMeA]L[β3hA][dNMeA][NMeA])) | 36 | 144 |  | 
CC(C)C[C@@H]1NC(=O)[C@H](CC(C)C)N(C)C(=O)[C@H](C)NC(=O)[C@H](C(C)C)N(C)C(=O)[C@H](Cc2ccccc2)NC(=O)CN(C)C(=O)[C@H]([C@@H](C)O)NC(=O)[C@H](C)N(C)C(=O)[C@H](CC(C)C)N(C)C(=O)[C@@H](C)NC(=O)C[C@@H](C(=O)N2CCCCC2)NC1=O [DP-95] ([dA][NMeL][NMeA]T[Sar]F[NMeV]A[NMeL]LD-Piperidide; lactam N-11) | 7.3 | 19 |  | 
CC(C)C[C@H]1C(=O)N[C@@H]([C@@H](C)O)C(=O)N(C)[C@@H](C)C(=O)N[C@H](C(=O)N2CCCCC2)CC(=O)N[C@H](C)C(=O)N(C)[C@@H](C)C(=O)N(C)[C@@H](Cc2ccccc2)C(=O)N1C [DP-538] ([dA][NMeA][NMeF][NMeL]T[NMeA]D-Piperidide; lactam N-7) | 5.5 | 37 |  | 
CC[C@H](C)[C@@H]1NC(=O)[C@H](C)N(C)C(=O)[C@H](CC(C)C)N(C)C(=O)CN(C)C(=O)[C@H]([C@@H](C)O)NC(=O)[C@H](C(C)C)N(C)C(=O)[C@H](C)N(C)C(=O)[C@H](Cc2ccccc2)NC(=O)[C@@H](C)NC(=O)C[C@@H](C(=O)N(C)[C@@H](Cc2ccccc2)C(=O)N(C)[C@@H](Cc2ccccc2)C(=O)N[C@@H](C)C(=O)N2CCCCC2)NC1=O [DP-502] ([dA]F[NMeA][NMeV]T[Sar][NMeL][NMeA]ID[NMeF][NMeF]A-Piperidide; lactam N-10) | 17 | 19 |  | 
CC(C)C[C@@H]1NC(=O)CCN(C)C(=O)C[C@@H](C(=O)N2CCCCC2)NC(=O)[C@H](Cc2ccccc2)N(C)C(=O)CNC(=O)[C@H]([C@@H](C)O)NC(=O)[C@H](Cc2ccccc2)NC(=O)[C@H](CC(C)C)N(C)C(=O)[C@H](CC(C)C)NC(=O)[C@H](Cc2ccccc2)NC1=O [DP-117] ([NMeβAla]LFL[NMeL]FTG[NMeF]D-Piperidide; lactam N-10) | 25 | 194 |  | 

— US9409952B2, “Peptide-compound cyclization method” (Chugai Seiyaku Kabushiki Kaisha, priority 2011, dated 2016)
